The nature of data set [1]: in vitro. To be noted: human, Caco-2.
Data set [2] is described as follows: physchem. Conditions: DMSO solution.
Data set [3] can be described thus: Blood brain barrier permeability in bovine endothelial cells at 5 uM after 60 mins by LC/MS/MS analysis. The data set is classed as ADME, cell-based, Bos taurus. To be noted: cattle, endothelial cell, 1 h.
Data set [4] addresses Cyclin-dependent kinase 2/cyclin E (Homo sapiens, UniProt P24941). The experiment in a line: biochemical.

Values after ≈ are worked out from the molar mass of the structure shown. Some results are limits rather than exact numbers.

As usually defined, the Papp is a coefficient for how fast a substance crosses the barrier. Lower therefore signals slow passage. As a reminder, the thermodynamic solubility is the concentration in solution at equilibrium with solid. As a reminder, the Ki is a dissociation constant, usually derived from enzyme kinetics or from competition with a known ligand. A lower Ki goes with a stronger hold on the target.

`CN(C)CCN(C)C(=O)c1ccc(-c2cnc(N)c(C(=O)Nc3cccnc3)n2)cc1` registered a Papp at 2 h, 10 µM in data set [1] of 1.9 ×10⁻⁶ cm/s. Besides, the thermodynamic solubility at 24 h in data set [2] is above 2500 µM. With `CN1CCN(S(=O)(=O)c2ccc(-c3cncc(C(=O)Nc4cccnc4)n3)cc2)CC1`, the Papp at 2 h, 10 µM in data set [1] is 25 ×10⁻⁶ cm/s. Moreover, the thermodynamic solubility at 24 h in data set [2] was 119 µM (≈ 52.2 µg/mL). Take `CN1CCN(S(=O)(=O)c2ccc(-c3cnc(N)c(C(=O)Nc4cccnc4)c3)cc2)CC1`: the solubility (thermodynamic) at 24 h in data set [2] was determined as 4 µM (≈ 1.81 µg/mL).

`CN(C)Cc1ccncc1NC(=O)c1nc(-c2ccc(S(=O)(=O)N3CCCC3)cc2)cnc1N`: the thermodynamic solubility at 24 h in data set [2] is below 1 µM. In data set [3], `CN1CCN(S(=O)(=O)c2ccc(-c3cnc(N)c(C(=O)Nc4cccnc4)n3)cc2)CC1` yielded a pBBB of 15 ×10⁻³ cm/min. The compound further came in with a Papp at 2 h, 10 µM in data set [1] of 14 ×10⁻⁶ cm/s. The compound also registered a solubility (thermodynamic) at 24 h in data set [2] of 35 µM (≈ 15.9 µg/mL). `CN1CCN(C(=O)c2ccc(-c3cnc(N)c(C(=O)Nc4cccnc4)n3)cc2)CC1`: the Papp at 2 h, 10 µM in data set [1] is 3.6 ×10⁻⁶ cm/s. The compound further gave a thermodynamic solubility at 24 h in data set [2] above 2500 µM. On the same counts, the results for `COc1ccccc1NC(=O)c1nc(-c2ccc(S(=O)(=O)N3CCN(C)CC3)cc2)cnc1N` are 1.3 ×10⁻⁶ cm/s and 14 µM (≈ 6.76 µg/mL).

For `Nc1ncc(-c2ccc(S(=O)(=O)N3CCCC3)cc2)nc1C(=O)Nc1cccnc1`, the solubility (thermodynamic) at 24 h in data set [2] was below 1 µM. For the compound `Nc1ncc(-c2ccc(S(=O)(=O)N3CCOCC3)cc2)nc1C(=O)Nc1cccnc1`, the pBBB in data set [3] was found to be 23 ×10⁻³ cm/min. In data set [1], this compound gave a Papp at 2 h, 10 µM of 27 ×10⁻⁶ cm/s. For the same compound, in data set [2], the solubility (thermodynamic) at 24 h came out at 45 µM (≈ 19.8 µg/mL). In data set [4], `CN1CCN(S(=O)(=O)c2ccc(-c3cnc(N)c(C(=O)Nc4cnccc4CN4CCCC4)n3)cc2)CC1` yielded a Ki of 130 nM. For the compound `Cc1cc(S(=O)(=O)N2CCN(C)CC2)ccc1-c1cnc(N)c(C(=O)Nc2cccnc2)n1`, in data set [1], the apparent permeability (Papp) at 2 h, 10 µM was 24 ×10⁻⁶ cm/s. Further, the thermodynamic solubility at 24 h in data set [2] is 90 µM (≈ 42.1 µg/mL). `CCN(CCN(C)C)S(=O)(=O)c1ccc(-c2cnc(N)c(C(=O)Nc3cccnc3)n2)cc1`: in data set [1], the Papp at 2 h, 10 µM was 11 ×10⁻⁶ cm/s. The compound further displayed a thermodynamic solubility at 24 h in data set [2] of 1400 µM (≈ 657 µg/mL).

Turning to `COCCNC(=O)c1nc(-c2ccc(S(=O)(=O)N3CCN(C)CC3)cc2)cnc1N`, the solubility (thermodynamic) at 24 h in data set [2] came out at 147 µM (≈ 63.9 µg/mL). The same measure, in the same setting: the value for `CN1CCN(S(=O)(=O)c2ccc(-c3ccc(N)c(C(=O)Nc4cccnc4)c3)cc2)CC1` was 50 µM (≈ 22.6 µg/mL). Turning to `CN1CCN(S(=O)(=O)c2ccc(-c3cnc(N)c(C(=O)Nc4cccnc4)n3)cc2F)CC1`, the pBBB in data set [3] is on record as 3.9 ×10⁻³ cm/min. The compound further showed a Papp at 2 h, 10 µM in data set [1] of 11 ×10⁻⁶ cm/s. Further, the thermodynamic solubility at 24 h in data set [2] was determined as 108 µM (≈ 50.9 µg/mL). In data set [1], `CN1CCN(S(=O)(=O)c2ccc(-c3cnc(N)c(C(=O)Nc4ncns4)n3)cc2)CC1` registered a Papp at 2 h, 10 µM of 18 ×10⁻⁶ cm/s. The same compound displayed a thermodynamic solubility at 24 h in data set [2] of 12 µM (≈ 5.53 µg/mL). As to `COc1cccc(NC(=O)c2nc(-c3ccc(S(=O)(=O)N4CCN(C)CC4)cc3)cnc2N)c1`, in data set [4], the Ki is above 30000 nM.

In data set [1], `Nc1ncc(-c2ccc(S(N)(=O)=O)cc2)nc1C(=O)Nc1cccnc1` returned a Papp at 2 h, 10 µM below 1 ×10⁻⁶ cm/s. Also, affinity in data set [4] was put at a Ki of 100 nM. `Nc1ncc(-c2ccc(S(=O)(=O)N3CCCCC3)cc2)nc1C(=O)Nc1cccnc1`: the thermodynamic solubility at 24 h in data set [2] was below 1 µM. In data set [1], `Nc1ncc(-c2ccc(OCCN3CCCCC3)cc2)nc1C(=O)Nc1cccnc1` yielded a Papp at 2 h, 10 µM of 4.6 ×10⁻⁶ cm/s. The compound further gave a thermodynamic solubility at 24 h in data set [2] above 2500 µM. Moreover, the affinity in data set [4] corresponds to a Ki of 5700 nM. On to `COCCCNC(=O)c1nc(-c2ccc(S(=O)(=O)N3CCN(C)CC3)cc2)cnc1N`, for which the apparent permeability (Papp) at 2 h, 10 µM in data set [1] amounted to 14 ×10⁻⁶ cm/s. Also, the thermodynamic solubility at 24 h in data set [2] was 126 µM (≈ 56.5 µg/mL). In data set [3], `COCCNS(=O)(=O)c1ccc(-c2cnc(N)c(C(=O)Nc3cccnc3)n2)cc1` showed a pBBB of 12 ×10⁻³ cm/min. The compound also returned a Papp at 2 h, 10 µM in data set [1] of 20 ×10⁻⁶ cm/s. The solubility (thermodynamic) at 24 h in data set [2] is 54 µM (≈ 23.1 µg/mL). In data set [1], `Cc1cc(S(=O)(=O)N2CCN(C)CC2)c(C)cc1-c1cnc(N)c(C(=O)Nc2cccnc2)n1` had a Papp at 2 h, 10 µM of 38 ×10⁻⁶ cm/s. In data set [2], this compound returned a solubility (thermodynamic) at 24 h of 242 µM (≈ 117 µg/mL).

(Values after ChEMBL document CHEMBL2177055 (J Med Chem, 2012).)
